Measurements as given in PMC12114195, “Synthesis, Experimental and Computational Evaluation of SERAAK1 as a 5-HT2A Receptor Ligand” (Molecules, 2025).

Key:
[1] = molecular target: CYP2D6 (Homo sapiens, UniProt P10635); assay: CYP2D6 P450 Glo luminescent assay; conditions: for inhibition at 10 µM: human
Procedure: (§1) Luminescence-based CYP3A4 P450 Glo and CYP2D6 P450 Glo kits (Promega, Madison, WI, USA) were used to assess the impact of SERAAK1 on the activity of two distinct cytochrome P450 isoforms. These assays were performed according to the protocol of the manufacturer and in alignment with the previously described methods. Each assay was performed twice in triplicate. Luminescence signals were measured using a Spark microplate reader (Tecan, Männedorf, Zürich, Switzerland).

[2] = molecular target: T1, CYP3A4 (Homo sapiens, UniProt P08684); assay: CYP3A4 P450 Glo luminescent assay; format: in vitro ADME
T1 construct: purchased Promega
Procedure: Briefly, the effect of SERAAK1 on CYP3A was determined using a luminescent luciferase-based assay. A 10 µM concentration of the compound was tested in two experiments, each with three replicates.
as §1

[3] = system: HepG2 cells; assay: MTS cytotoxicity assay, HepG2; format: cell-based, human; conditions: 72 h
Procedure: (§2) The cytotoxic properties of SERAAK1 were tested in two human cell lines, selected based on their relevance to the study objectives—the HepG2 and SH-SY5Y. Figure 7 and Figure 8 depict the results obtained in the cytotoxicity assays performed using the MTS.
(§3) The cytotoxic effect of SERAAK1 was evaluated using the colorimetric MTS assay. The study was conducted on HepG2 and SH-SY5Y cell lines, following the same protocol. Cell lines were obtained from the American Type Culture Collection (Manassas, VA, USA) and maintained under standard conditions (5% CO2, 37 °C) in DMEM/F12 medium (#31330-038, ThermoFisher Scientific, Waltham, MA, USA), supplemented with 10% FBS (#A5256801, ThermoFisher Scientific) and Penicillin-Streptomycin (#15140-122, ThermoFisher Scientific) until used in the experiment. Cells at passage numbers between 15 and 25 were seeded in 96-well plates at the concentration of 5000 cells/well in 200 μL of medium and incubated for 24 h at 37 °C with 5% CO2. […] Subsequently, plates were incubated at 37 °C, and absorbance was measured using a Spark microplate reader after 1 h for HepG2 and 3 h for SH-SY5Y. Final cell viability was calculated relative to control wells (100% viability) and wells with 10 μM doxorubicin (0% viability). […]

[4] = system: SH-SY5Y cells; assay: MTS cytotoxicity assay, SH-SY5Y; format: cell-based, human; conditions: 72 h
Procedure: as §2, §3

[5] = PAMPA passive permeability; format: in vitro ADME; conditions: for Papp at 5 h, 100 μM: PBS pH 7.4, 5 h, read-out: Pe ± SD
Procedure: The PAMPA assay was utilized to evaluate the ability of SERAAK1 to passively diffuse through a lipid-infused artificial membrane. The results, gathered in Table 3, were expressed as permeability coefficient Pe, calculated according to the formulas described elsewhere.
The pre-coated PAMPA Plate System Gentest from Corning (Tewksbury, MA, USA) was used in experiments using the instructions of the manufacturer. SERAAK1 and reference compounds were diluted in the PBS buffer (pH 7.4) to the final concentration of 100 μM and placed on the 96-well donor microplate. The exact quantity of molecules that successfully penetrated from donor to acceptor wells through the phospholipid membrane was estimated after 5 h of incubation using UPLC-MS spectrometry (Waters ACQUITY™ TQD system with the TQ Detector, Waters, Milford, CT, USA). The final permeability coefficient (Pe, cm/s) calculation was performed using the formula provided by the vendor of the PAMPA Plate System.

[6] = system: mice; assay: Spontaneous locomotor activity; format: in vivo; conditions: 30 and 60 mg/kg i.p., 60 min before the test, one-way ANOVA
Procedure: Spontaneous locomotor activity is a meaningful parameter helping to understand the physical and mental status of laboratory animals, providing insights into general activity levels, arousal and potential sedative or stimulant effects of administered substances. We measured the distance traveled by the mice during the 20 min observation period.
(§4) The investigated compound (SERAAK1) in all tests was administered intraperitoneally (i.p.), spread in a drop of Tween 80, diluted by an aqueous solution of 0.5% methylcellulose (tylose) and injected 60 min before the tests in a volume of 10 mL/kg. Initial doses of the compound were selected based on available literature and our earlier studies. Control groups received tylose injections of the same volume and via the same route of administration.
(§5) All experiments were conducted on a 6-week-old naïve male Swiss mice weighing 24–30 g in the Experimental Medicine Center, Medical University of Lublin, Poland. […]
(§6) The automatic device—actimeter Opto-Varimex-4 Auto-Track (Columbus Instruments, Columbus, OH, USA)—was used to measure the locomotor activity of experimental animals. The mice were individually placed in cages for 25 min: the first 5 min for acclimatization and then the next 20 min for observation while the distance (in centimeters) traveled during this time was measured. […]

[7] = system: mice; assay: Chimney test (motor coordination); format: in vivo; conditions: 30 mg/kg and 60 mg/kg i.p., 60 min after administration
Procedure: (§7) This conclusion was supported by results from two widely used behavioral tests: the chimney test (Figure 10) and the rotarod test (Figure 11), conducted 60 min after the substance administration. In the chimney test, we measured the time it took the mice to exit the chimney, and in the second test, the time the animals stayed on the rod rotating at a constant speed of 18 rpm.
as §4
(§8) All experiments were conducted on a 6-week-old naïve male Swiss mice weighing 24–30 g in the Experimental Medicine Center, Medical University of Lublin, Poland. The animals were housed (four/five per cage) under standard laboratory conditions (room temperature of 22 ± 1 °C and a relative humidity of 50–60% during a 12/12 h light-dark cycle, lights on at 8:00). […]
(§9) The effects of SERAAK1 were also measured in the rotarod and chimney tests. In the first test, the ability of mice to balance on a rotating rod (18 rpm, constantly) was assessed for 1 min. […]

[8] = system: mice; assay: Rotarod test (motor coordination); format: in vivo; conditions: 30 mg/kg and 60 mg/kg i.p., 60 min after administration
Procedure: as §7, §4, §8, §9

[9] = system: mice; assay: Elevated plus maze test (EPM); format: in vivo; conditions: 30 mg/kg i.p.
Procedure: The effect of SERAAK1 on anxiety-like behavior in mice was assessed using the elevated plus maze test (EPM). In this test we measured three parameters: time spent in the open arms of the maze, the number of entries into the open arms—expressed as a percentage of the time spent/entries in both types of maze arms and the total number of entries into the open and closed arms of the maze, which is an additional measure of the animals’ locomotor activity. The anxiolytic activity of mice after SERAAK1 administration was expressed as the percentage of time spent in the open arms of the maze and the number of entries into these arms. Statistical analysis with a t-test indicated a significant influence of acute administration of SERAAK1 (30 mg/kg) on anxiety responses.
as §4
All experiments were conducted on a 6-week-old naïve male Swiss mice weighing 24–30 g in the Experimental Medicine Center, Medical University of Lublin, Poland. The animals were housed (four/five per cage) under standard laboratory conditions (room temperature of 22 ± 1 °C and a relative humidity of 50–60% during a 12/12 h light-dark cycle, lights on at 8:00). The animals had free access to laboratory food—pellet diet (LSM, Agropol Motycz, Marynin, Poland) and tap water—except for the short time when they were removed from the cages for testing. […]
Anxiety behaviors were measured using the EPM test according to the Lister method. […] The time spent in the EPM open arms, the number of entries into the open arms, and the total number of entries into both types of arms were measured.

[10] = system: mice; assay: Forced swim test (FST); format: in vivo; conditions: 30 mg/kg i.p., 60 min before the test, vs control, p < 0.01
Procedure: The forced swim test (FST) is commonly used in rodent laboratory models to assess the efficacy of a potential antidepressant drug in alleviating or preventing depressive-like states. In the FST, we estimated the immobility time of animals, illustrating it […]. In this study, a t-test was used to assess the statistically significant effect of acute administration of SERAAK1 (30 mg/kg) on mice behavior in the FST.
as §4, §5
The study was carried out using the test proposed by R. Porsolt. […] The immobility time, considered as the state in which the mouse performs only those movements necessary to keep its head above the water, is measured between 2 and 6 min.

[11] = system: mice; assay: Amphetamine-induced hyperactivity; format: in vivo
Procedure: In this test, we measured the distance traveled by the mice during the 20 min observation period. […] Pretreatment concerns the administration of amphetamine, and treatment concerns the tested compound.
as §4, §8, §6

[12] = molecular target: 5-HT2A receptor; parameters: method as in PMID 38619283; conditions: radioligand binding; cited from earlier work
[13] = molecular target: 5-HT1A receptor; parameters: method as in PMID 38619283; conditions: radioligand binding; cited from earlier work
[14] = molecular target: D2 receptor; parameters: method as in PMID 38619283; conditions: radioligand binding; cited from earlier work
[15] = molecular target: 5-HT2A receptor; parameters: method as in PMID 38619283; conditions: functional studies; read-out: Kb, antagonist of the 5-HT2A receptor; cited from earlier work
[16] = 30 µM (highest concentration tested)
[17] = 60 min before the test, vs control, p < 0.001

Sequence of CYP2D6 (P10635 whole entry, canonical isoform): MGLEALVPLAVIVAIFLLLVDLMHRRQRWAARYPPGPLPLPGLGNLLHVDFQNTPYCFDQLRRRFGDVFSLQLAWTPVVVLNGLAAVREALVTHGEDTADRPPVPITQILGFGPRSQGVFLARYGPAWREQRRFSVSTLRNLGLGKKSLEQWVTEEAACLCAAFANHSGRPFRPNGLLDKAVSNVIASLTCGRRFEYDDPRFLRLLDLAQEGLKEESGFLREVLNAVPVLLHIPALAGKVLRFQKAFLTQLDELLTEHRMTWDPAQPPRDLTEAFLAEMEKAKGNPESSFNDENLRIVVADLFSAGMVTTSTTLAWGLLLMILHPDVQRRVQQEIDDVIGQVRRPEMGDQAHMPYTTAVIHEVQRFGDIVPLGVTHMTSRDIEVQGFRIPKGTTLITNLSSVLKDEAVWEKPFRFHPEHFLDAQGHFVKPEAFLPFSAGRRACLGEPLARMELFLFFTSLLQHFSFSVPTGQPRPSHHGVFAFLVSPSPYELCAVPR
T1 sequence (P08684 whole entry): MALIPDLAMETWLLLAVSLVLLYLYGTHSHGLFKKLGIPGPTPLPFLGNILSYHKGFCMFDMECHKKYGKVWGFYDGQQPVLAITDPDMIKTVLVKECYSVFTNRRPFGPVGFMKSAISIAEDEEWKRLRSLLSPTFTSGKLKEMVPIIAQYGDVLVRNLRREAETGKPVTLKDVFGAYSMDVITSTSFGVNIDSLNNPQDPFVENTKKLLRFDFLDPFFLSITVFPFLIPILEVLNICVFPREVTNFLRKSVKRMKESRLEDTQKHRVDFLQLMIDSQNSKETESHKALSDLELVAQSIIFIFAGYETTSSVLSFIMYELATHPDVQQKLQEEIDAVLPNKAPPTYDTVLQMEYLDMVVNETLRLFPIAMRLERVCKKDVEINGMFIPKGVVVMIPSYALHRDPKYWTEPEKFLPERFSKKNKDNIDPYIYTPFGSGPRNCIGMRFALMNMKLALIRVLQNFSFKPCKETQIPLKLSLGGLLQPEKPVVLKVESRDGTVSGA

**Q.** For `C=C[C@H]1C[N@@]2CC[C@H]1C[C@@H]2[C@@H](O)c1ccnc2ccc(OC)cc12` [Quinidine, reference compound], which inhibition at 10 µM ([1]; CYP2D6 P450 Glo kit (Promega)) is on record?
**A.** 100 ± 1%

**Q.** With `OC(COC(c1ccccc1)c1ccccc1)CN1CCN(C(c2ccccc2)c2ccccc2)CC1` (stereo not shown) [SERAAK1, 1-(benzhydryloxy)-3-(4-benzhydrylpiperazin-1-yl)propan-2-ol] as the molecule, how does the “CYP3A4 induction, dose-response” value ([2]; concentrations > 100 nM, up to 10 µM) read?
**A.** induce CYP3A4 in a dose-dependent manner

**Q.** And the inhibition at 10 µM ([2]; human, CYP3A4 P450 Glo kit (Promega), 10 µM, a negative value indicates a stimulating effect, read-out: CYP3A4 Activity Inhibition, Evaluated in the Concentration of 10 µM [% of Inhibition ± SEM])?
**A.** -352 ± 9%

**Q.** What about the “CYP2D6 inhibition concentration range (IC50)” value [1] of the same molecule?
**A.** submicromolar

**Q.** And the inhibition at 10 µM [1]?
**A.** 95 ± 1%

**Q.** What about the “Toxic influence on HepG2 cells at lower concentrations” value ([3]; 0.3 µM, 3 µM) of the same molecule?
**A.** no toxic influence

**Q.** And the “% inhibition of cell proliferation (cytotoxic effect), HepG2” value [3, 16]?
**A.** 84 ± 3%

**Q.** What about the “Toxic influence on SH-SY5Y cells at lower concentrations” value ([4]; 0.3 µM, 3 µM) of the same molecule?
**A.** no toxic influence

**Q.** And the “% inhibition of cell proliferation, SH-SY5Y” value [4, 16]?
**A.** 50 ± 5%

**Q.** What about the “Passive permeation through the lipid bilayer” value [5] of the same molecule?
**A.** did not permeate passively

**Q.** And the Papp at 5 h, 100 μM [5]?
**A.** < 0.01 ×10⁻⁶ cm/s

**Q.** And the “Spontaneous locomotor activity (distance traveled in 20 min)” value [6]?
**A.** did not show any significant changes

**Q.** And the “Motor coordination, chimney test (time to exit the chimney)” value [7]?
**A.** did not reveal any statistically significant effects

**Q.** And the “Motor coordination, rotarod test (time on the rod, 18 rpm)” value [8]?
**A.** did not reveal any statistically significant effects

**Q.** And the “Total arm entries, overall mobility (EPM)” value [9]?
**A.** did not change the overall mobility

**Q.** What about the “Increase in percentage of open arm entries (EPM)” value [9, 17] of the same molecule?
**A.** 19.34%

**Q.** What about the “Increase in percentage of time spent on the open arms (EPM)” value [9, 17] of the same molecule?
**A.** 12.9%

**Q.** And the “Reduction in immobility time (FST)” value [10]?
**A.** 29.2%

**Q.** What about the “Decrease of amphetamine-induced hyperactivity (distance traveled in 20 min)” value ([11]; 30 mg/kg with amphetamine (5 mg/kg), vs amphetamine-treated group, p < 0.05) of the same molecule?
**A.** 22.15%

**Q.** And the Ki [12]?
**A.** 826 ± 51 nM

**Q.** What about the Ki [13] of the same molecule?
**A.** 1420 ± 108 nM

**Q.** What about the Ki [14] of the same molecule?
**A.** 1290 ± 323 nM

**Q.** And the Kb [15]?
**A.** 462 nM

**Q.** Which Papp at 5 h, 100 μM [5] does the source give for `CCN1CCCC1CNC(=O)c1cc(S(N)(=O)=O)ccc1OC` (stereo not shown) [Sulpiride, reference compound] here?
**A.** 0.011 ± 0.002 ×10⁻⁶ cm/s

**Q.** Which “Locomotor activity (distance traveled) vs saline-treated group” value ([11]; amphetamine alone, p < 0.001) does the source give for `CC(N)Cc1ccccc1` (stereo not shown) [amphetamine, reference compound] here?
**A.** increased the locomotor activity
